Source: patent US7265245B2, “Compounds useful for the treatment of diseases associated with the formation of amyloid fibrils” (Innovaprotean, S.L, priority 2003, dated 2007)

Molecular target: Y78F hTTR mutant (Homo sapiens, UniProt P02766, Y98F)
Experiment: turbidimetric test of amyloidogenesis (fibril formation) inhibiting activity in vitro
Assay type: biochemical
Settings: for RA (%): % reduction of the rate of aggregation at high inhibitor concentration: RA(%)=(1−A/(A+B))·100, compared with the rate in the absence of inhibitor; for IC50: inhibitor concentration at which the aggregation was half that in the absence of inhibitor, 0 to 40 μM inhibitor, 37° C., acid-induced (dilution buffer pH 4.2); for Ψ: initial slope of curve v0 versus [I]: sensitivity of the aggregation process to the inhibitor, higher = greater inhibiting effect
Method: The compounds to be tested as inhibitors were dissolved in DMSO at a concentration of 1.5 mM. The working solution was prepared by 1 to 4 dilution of the previous solution in a water/DMSO mixture (2:1). […] The incubation buffer was 10 mM sodium phosphate, 100 mM potassium chloride, 1 mM EDTA, […]. The dilution buffer was 400 mM sodium acetate, 100 mM potassium chloride, 1 mM EDTA, pH 4.2. The test protocol for an inhibitor was as follows: 20 μl of the protein solution was dispensed in 7 wells of a 96-well microplate. Different volumes of the inhibitor working solution were added to each of the wells to obtain end concentrations of 0 to 40 μM. Incubation buffer was then added to each well up to an end volume of 100 μl. The microplate was incubated at 37° C. in the microplate reader provided with thermostatting and stirring. Incubation proceeded for 30 min at 37° C. with stirring for 15 seconds every minute. 100 μl of dilution buffer was then added to every well, and the mixture was incubated at 37° C. with stirring for 15 seconds every minute in the microplate reader and absorbance was monitored at 330 nm for 1 hour 30 minutes at intervals of 1 minute. The data of absorbance versus time for every well were collected and analysed with the Microsoft Excel program. All tests were done in duplicate.
1.—Initial fibril formation rate. From the absorbance readings at 330 nm with the incubation time for every well, the initial fibril formation rate was calculated as the slope of the initial linear portion of the curve. Thus, the aggregation rate was obtained at every inhibitor concentration. 2.—Aggregation rate versus inhibitor concentration.
The adjusted parameters were: A (in units of absorbance per hour), residual aggregation rate at high inhibitor concentration; B (in units of absorbance per hour), amplitude or maximum reduction of the aggregation rate; and C (in μM^−1) the exponential constant. A+B was the aggregation rate in the absence of inhibitor (maximum aggregation rate). From these parameters, other parameters were extracted that characterised every inhibitor with regard to its capacity and effectiveness in inhibiting fibril formation: • IC50: inhibitor concentration (μM) at which the aggregation was half that in the absence of inhibitor; • Ψ: initial slope of curve v0 versus [I], which reflected the sensitivity of the aggregation process to the inhibitor.

COC(=O)c1cc(-c2ccc(F)cc2F)cc(I)c1O [Iododiflunisalmethyl ester, methyl 5-(2,4-difluorophenyl)-3-iodo-salicylate]
RA (%): % reduction of the rate of aggregation at high inhibitor concentration: 98%
IC50: 16.7 µM
Ψ: initial slope of curve v0 versus [I]: 0.027 UA · hr^−1 · μM^−1

N-[5-(2,4-difluorophenyl)-3-iodo-salicyloyl]glycine [Iododiflunisalglycine]
RA (%): % reduction of the rate of aggregation at high inhibitor concentration: 100%
IC50: 11.2 µM
Ψ: initial slope of curve v0 versus [I]: 0.040 UA · hr^−1 · μM^−1

COC(=O)c1cc(-c2ccc(F)cc2F)ccc1O [Diflunisal methylester]
RA (%): % reduction of the rate of aggregation at high inhibitor concentration: 24%
IC50: > 100 µM
Ψ: initial slope of curve v0 versus [I]: 0.011 UA · hr^−1 · μM^−1

O=C(O)c1cc(-c2ccc(F)cc2F)ccc1O [Diflunisal, 5-(2,4-difluorophenyl)salicylic acid]
RA (%): % reduction of the rate of aggregation at high inhibitor concentration: 84%
Ψ: initial slope of curve v0 versus [I]: 0.036 UA · hr^−1 · μM^−1

O=C(O)CNC(=O)c1cc(-c2ccc(F)cc2F)ccc1O [Diflunisal glycine]
RA (%): % reduction of the rate of aggregation at high inhibitor concentration: 28%
IC50: > 100 µM
Ψ: initial slope of curve v0 versus [I]: 0.011 UA · hr^−1 · μM^−1

NC(=O)c1cc(-c2ccc(F)cc2F)ccc1O [Diflunisal amide]
RA (%): % reduction of the rate of aggregation at high inhibitor concentration: 10%
IC50: > 100 µM
Ψ: initial slope of curve v0 versus [I]: 0.009 UA · hr^−1 · μM^−1

NC(=O)c1cc(-c2ccc(F)cc2F)cc(I)c1O [Iododiflunisalamide, 5-(2,4-difluorophenyl)-3-iodo-salicylamide]
RA (%): % reduction of the rate of aggregation at high inhibitor concentration: 84%
IC50: 11.7 µM
Ψ: initial slope of curve v0 versus [I]: 0.041 UA · hr^−1 · μM^−1
